Patent publication US8716012B2, “Alpha thymosin peptides as vaccine enhancers” (priority 2009, dated 2014)

Columns and labels:
[1] = CD-1 mice; TA1 0.3, 0.6 or 1.2 mg/kg/dose i.p. with Fluvirin
[2] = Safety and tolerability observations in ferrets; format: in vivo; conditions: TA1 0.285 or 0.570 mg/kg/dose s.c.
Procedure: The vaccine (either Agrippal influPozzi seasonal vaccine, non-adjuvanted, or Fluad, MF-59 adjuvanted) was administered via intramuscular injection to the right leg at a full human dose of 0.5 mL. TA1 (0.285 or 0.570 mg/kg/dose) was administered by the subcutaneous route at a dose volume that, using a scaling factor for ferret/human dosing, corresponding to approximate human doses of […]. Animals were observed twice daily for mortality, general health, and both local and systemic signs of toxicity and illness as well as behavior under the responsibility of a professional veterinarian. Body weights were recorded prior to dosing only.

[3] = more than 3,000 patients (adults, elderly, children); cited from earlier work
[4] = doses as high as 800 times the recommended human dose; cited from earlier work
[5] = cited from earlier work

For “Ac-SDAAVDTSSEITTKDLKEKKEVVEEAEN-OH [TA1]”, the “clinical/cageside observations or body weight effects” value [1] was “no test article-related clinical/cageside observations or body weight effects”, the survival [1] was “All animals survived until scheduled termination” and the cage-side observations [2] was “no cage-side observations were noted”. The safety and tolerability [2] was “safe and well-tolerated”, the “drug-related side effects in clinical studies” value [3] was “virtually no drug-related side effects” and the “adverse clinical signs in animal studies” value [4] was “no evidence of adverse clinical signs”. For the same substance, the Peak plasma levels ([5]; after injection of 3.2 mg of TA1 (about 40 μg/kg)) was “approximately 100 ng/ml”, the “half-life of TA1 in the circulation” value ([5]; in vivo) was “about 2 hours” and the plasma half-life ([5]; subcutaneously injected TA1) was “about two”.
